# Measurements published in PubChem BioAssay (NCI).
#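 Where inhibition never reached the appropriate level, the endpoint shown equals the highest concentration tested. Otherwise, values were interpolated linearly from a five-concentration, 48-hour dose response in 96-well plates. TGI marks complete inhibition of growth.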
# Tests used:
# Assay in all cases: DTP human tumour cell line panel, 48 h
# MCF7 breast = tested on: MCF7 breast
# LOX IMVI melanoma = tested on: LOX IMVI melanoma
# DU-145 prostate = tested on: DU-145 prostate
# UO-31 renal = tested on: UO-31 renal
# SF-268 CNS = tested on: SF-268 CNS
# A498 renal = tested on: A498 renal
# MDA-MB-435 = tested on: MDA-MB-435
# SN12C renal = tested on: SN12C renal
# SR leukemia = tested on: SR leukemia
# CCRF-CEM leukemia = tested on: CCRF-CEM leukemia
Compound,TGI (MCF7 breast),TGI (LOX IMVI melanoma),TGI (DU-145 prostate),TGI (UO-31 renal),TGI (SF-268 CNS),TGI (A498 renal),TGI (MDA-MB-435),TGI (SN12C renal),TGI (SR leukemia),TGI (CCRF-CEM leukemia)
COC(=O)[C@]1(c2cc3ccccc3n2S(=O)(=O)c2ccccc2)CC2CN(C(C)=O)C1CC2=O (some centres undefined),3.37 µM,3.8 µM,11.7 µM,3.45 µM,5.83 µM,21.4 µM,6.32 µM,8.11 µM,5.12 µM,
CCOC(=O)C1=CNC(C(=O)OCC)C1c1cccn1-c1ccc(Cl)cc1[N+](=O)[O-] (centres undefined),60.6 µM,29.4 µM,> 100 µM,> 100 µM,55.5 µM,> 100 µM,58.7 µM,37.8 µM,61.8 µM,66.1 µM
CC1(C)N=C(C(N)=O)c2ncn(N)c2N1,> 100 µM,> 100 µM,> 100 µM,,> 100 µM,> 100 µM,> 100 µM,> 100 µM,> 100 µM,> 100 µM
S=C(NC1=NCC(CN2CCN(c3ccccc3)CC2)O1)Nc1ccccc1 (centres undefined),> 100 µM,61.8 µM,> 100 µM,97.5 µM,> 100 µM,> 100 µM,> 100 µM,> 100 µM,> 100 µM,> 100 µM
COC(=O)c1c(O)ccc2c1c1c(n2Cc2ccccc2Cl)C(=O)c2ccccc2C1=O,32.4 µM,,29 µM,24.8 µM,29.4 µM,31.3 µM,25.2 µM,23.2 µM,47.8 µM,43.6 µM
C[C@]12CC[C@H]3[C@@H](CC=C4C[C@@H](N5CCCC5)CC[C@@]43C)[C@@H]1C[C@H](N1CCOCC1)[C@@H]2O,> 10 µM,> 10 µM,> 100 µM,> 100 µM,> 100 µM,> 100 µM,> 100 µM,> 100 µM,71.5 µM,> 100 µM
O=C1NC(SSC2=NNC3(C(=O)N2)c2ccccc2-c2ccccc23)=NNC12c1ccccc1-c1ccccc12,> 10 µM,> 10 µM,> 10 µM,> 10 µM,> 10 µM,> 10 µM,> 10 µM,> 10 µM,> 10 µM,> 10 µM
COC(=O)C1C/C(=C/N(C)C)C(=S)N1 (centres undefined),> 100 µM,,> 100 µM,> 100 µM,> 100 µM,> 100 µM,> 100 µM,,> 100 µM,> 100 µM
CC[C@H](O)[C@H](C)C=C1SCCCS1,> 100 µM,> 100 µM,> 100 µM,> 100 µM,> 100 µM,> 100 µM,> 100 µM,> 100 µM,> 100 µM,> 100 µM
CC(=O)N=C1N(/C=C2\C(=O)Oc3ccccc3C2=O)C(=O)/C(=C/c2ccc(OC(C)=O)cc2)N1C,> 100 µM,> 100 µM,> 100 µM,,> 100 µM,> 100 µM,> 100 µM,> 100 µM,> 100 µM,> 100 µM
